{
  "source": "patent US12503426B2",
  "about": "“Synthetic derivatives of oleoyl-lysophosphatidylinositol (oleoyl-LPI) and uses thereof” (LIPOVEXA SRL, priority 2017, dated 2025)",
  "key": {"NCI-H716 cells": {"test_system": "NCI-H716 cells", "assay": "GLP-1 secretion by NCI-H716 cells (Examples 2-8)", "assay_type": "cell-based, human", "conditions": "2 hours", "experimental": "NCI-H716 cells were maintained in 75 cm^2 tissue culture flasks (Corning) in RPMI 1640 media containing 2.0 mM L-glutamine, 1.5 g/L sodium bicarbonate, 10 mM HEPES buffer, 1.0 mM sodium pyruvate, and 4.5 g/L glucose and supplemented with 10% FBS at a 37° C. and 5% CO2. When plating for experiment, cell adhesion and endocrine differentiation were initiated by growing cells in dishes coated with growth factor reduced Matrigel diluted at the ratio of 1:2 (Becton Dickinson, Bedford, MA) in high-glucose DMEM, 10% FBS, 2 mM glutamine, 100 IU/ml penicillin, and 100 μg/ml streptomycin as described previously by De Bruine, a P., Dinjens, W. N., van der Linden, E. P., Pijls, M. M., Moerkerk, P. T., & Bosman, F. T. (1993) The American Journal of Pathology, Vol 142(3), pp 773-782, the disclosure of which is incorporated herein in its entirety by reference.\n(§1) Approximately 80,000 Glutag cells were plated in poly-L-lysine-coated 24-well culture plates and grown to about 80% confluence. NCI-H716 cells were seeded on growth factor reduced Matrigel™ (Becton Dickinson, Bedford, MA) in DMEM medium, supplemented with 10% FBS the day before the experiment. For NCI-H716 cells, approximately 25,000 cells were needed for this secretion experiment in order to have good stimulation with lower basal GLP-1 secretion. In brief, Glutag and NCI-H716 cells were washed twice and then incubated for 2 h with FBS-free DMEM containing 1% (M:C) alone (negative control), 10 μM forskolin as positive control (Sigma-Aldrich), or with different concentrations of Oleoyl-LPI. M:C was used as a solvent to prepare stock solutions of fatty acid derivatives and inhibitors. For secretion experiments, medium and cells were collected separately.\nIn separate studies, GLUTag or NCI-H716 cells were pre-treated for 1 hour with medium alone (1% DMSO, negative control), PD98059 (50 μM; Sigma Chemical Co.), H89 (10 μM; Santa Cruz) followed by treatment with oleoyl-LPI (20 μM), OEA (10 μM), AR231453(1 μM), PMA (10 μM) or forskolin (10 μM, positive control) in the presence of inhibitors, as appropriate, for about 2 h. Medium GLP-1 secretion was calculated as total GLP-1 content of medium normalised for the basal secretion of the control.\nIn order to investigate the role of different LPI species in enteroendocrine cells, murine (Glutag) and human (NCI-H716) L-cells were stimulated with the following different species of LPI: Arachidonyl-LPI, Stearoyl-LPI, Heptadecenoyl-LPI and oleoyl-LPI, as well as with OEA and LPC. Experiments were performed in duplicate, n=4 and the level of total GLP-1 was measured by ELISA."}, "[1]": {"test_system": "Glutag and NCI-H761 cells", "assay": "Dose response of GLP-1 release at different glucose concentrations", "assay_type": "cell-based", "conditions": "5 mM glucose, 2 hours, percentage of vehicle control", "experimental": "Panels A and B show results of dose response of GLP-1 release in different glucose concentration of 5 mM (panel A) and 10 mM (panel B). The dose response of GLP-1 released was normalised of number of cells measured in parallel. Glutag and […] cells were incubated with vehicle alone, oleoyl-LPI, OEA, LPC forskolin (10 μM) and PMA (1 μM) as positive control for 2 hours. Results were normalised as percentage of cell treated with vehicle (control). For panels A and B data are shown as means±SEM of n=3 from independent experiments performed in duplicates. Student t-test: *p<0.05, **P<0.01. Panel C show results of dose response of GLP-1 release in a glucose concentration of 20 mM.\nas §1\nTo determine the effect of glucose in oleoyl-LPI induced GLP-1 secretion, the inventors conducted dose-response experiment in the presence of 5 mM and 10 mM glucose in the secretion medium with the results outlined in FIG. 2A and FIG. 2B."}, "CREB": {"test_system": "CREB", "assay": "CREB phosphorylation by Western blot", "assay_type": "cell-based", "conditions": "H89 10 μM pre-treatment or oleoyl-LPI in control cells", "experimental": "When cell cultures reached 80-90%, media were removed and cells were washed twice with 1×PBS. The cells were lysed in 150 μl (for one well of a 6 well plate) of Triton X-100 lysis buffer, containing phosphatase inhibitor cocktail (1:1000) (Sigma Aldrich, UK) and protease inhibitor (1:1000, Sigma Aldrich, UK). Cells were detached with scrapers and lysate were collected and centrifuged at 10,000 rpm, 4° C. for 5 minutes. The supernatant was then transferred to a 1.5 ml microcentrifuge tube and used for protein quantification. Cell lysates were stored at −20° C. for longer storage. All lysates were prepared on ice.\nNon-specific antibody binding was prevented by incubating the nitrocellulose membrane in 5% milk in PBS-0.05% Tween-20 (v/v) for 30 minutes on a rotating plate. The membrane was then washed in PBS-0.05% Tween-20 (v/v) and then incubated with the primary antibody diluted in PBS-0.05% Tween-20 (v/v) on a rotating plate overnight at 4° C. After 24 hours, the membrane was washed 5× for 5 minutes with PBS-0.05% Tween-20 (v/v), and then incubated on a rotating plate with the appropriate secondary antibody for 1 hour at room temperature. […]"}},
  "data": [
    {"substance": "oleoyl-lysophosphatidylinositol [oleoyl-LPI]", "values": [
      {"measurement": "GLP-1 secretion", "setting": "NCI-H716 cells; NCI-H716 cells, normalised as percentage of cells treated with vehicle (control)", "value": "124±7.4", "unit": "%"},
      {"measurement": "effect of down-regulation of GPR55 on GLP-1 secretion", "setting": "NCI-H716 cells; siGPR55 transfected NCI-H716 cells, oleoyl-LPI 20 μM", "value": "no effect on GLP-1 secretion"},
      {"measurement": "GLP-1 secretion in siGPR119-transfected cells", "setting": "NCI-H716 cells; siGPR119 transfected NCI-H716 cells, oleoyl-LPI 20 μM", "value": "significantly reduced the GLP-1 secretion to the basal level"},
      {"measurement": "GLP-1 secretion", "setting": "[1]; 10 μM", "value": "126±8", "unit": "%"},
      {"measurement": "GLP-1 secretion", "setting": "[1]; 20 μM", "value": "223±23", "unit": "%"},
      {"measurement": "GLP-1 secretion", "setting": "[1]; 50 μM", "value": "333±45", "unit": "%"},
      {"measurement": "phosphorylation of CREB", "setting": "CREB", "value": "able to stimulate CREB phosphorylation"}
    ]}
  ]
}
